The subject of data set [1] is iPSC-RPE. Briefly: Pigmentation (brightfield), gross (H&E) and fine (TEM) morphology of treated iPSC-RPE. The class given is cell-based, human. Particulars: for gross cell morphology: H&E staining; for gross cell morphology / pigmentation levels / fine intracellular structure: AGN 193109 0.2 μM, endo-IWR-1 4 uM; for pigmentation levels: brightfield imaging, compared with DMSO; for fine intracellular structure: transmission electron microscopy; for effect on iPSC-RPE health / healthy RPE phenotype: verified by TER, brightfield, H&E and TEM. From the text:
(§1) Different techniques were used to study RPE morphologic features.
Brightfield imaging was used to determine RPE pigmentation defects, while hematoxylin and eosin (H&E) staining was valuable to inspect gross morphologic alterations of the monolayer. A section of transwell membrane was cut and mounted on a glass slide for brightfield imaging. Pigmentation levels were preserved after ENDO-1-IWR and AGN 193109 treatments as compared to DMSO-treated iPSC-RPE.
(§2) Finally, transmission electron microscopy (TEM) was used to detect fine morphological alterations, whereas scanning electron microscopy (SEM) was essential to study modifications in apical processes structures. […] In DMSO-treated iPSC-RPE we found both types of apical processes, petal and finger-like.
AGN 193109 was used at 0.2.μM and endo-IWR-1 at 4 uM. Both agents were dissolved in DMSO, so that the final concentration of DMSO was not more than 0.1%. The final concentration of DMSO control was 0.1%. The compounds were added in RPE maturation medium until cells were mature. Gross cell morphology was also analyzed (FIGS. 15B, 15E, and 15F, left image) to detect possible abnormalities. Fine intracellular structures were examined for alterations with transmission electron microscopy (TEM, FIGS. 15B, 15E, and 15F, right image).

For data set [2], the system named is iPSC-RPE. Briefly: Trans-epithelial electrical resistance (TER) of treated iPSC-RPE monolayer. Type of data set: cell-based, human. Conditions: for TER relative to cutoff / epithelial barrier integrity, in words: cutoff of 400 ohm*cm^2; for trans-epithelial electrical resistance (TER): fully mature iPSC-RPE, minimum threshold 400 Ωcm^2, DMSO around 1100 Ωcm^2. How it is done: as §1
At this point the trans-epithelial electrical resistance (TER) was assayed to confirm the quality of differentiation and examine the effect of drugs on tight junction integrity. The minimum threshold of 400 Ωcm^2 for epithelial resistance per unit area is used to determine good batches of differentiation.
Trans-epithelial electrical resistance (TER) is a measure of the tightness of the monolayer. The tighter the monolayer, the healthier are the cells in the monolayer. A cutoff of 400 ohm*cm^2 was used to exclude cells with low TER. […] The range specifies 90% of the data.

Data set [3] concerns iPSC-RPE. Briefly: iPSC-RPE cell area morphometry (REShAPE) after compound treatment. The class given is cell-based. Particulars: compared with macular (P1) and peripheral (P3) human RPE and the DMSO control. The protocol: FIG. 13. Testing different concentrations of AGN 193109 and endo-IWR-1 to reproduce macular (P1), central (P2) and peripheral (P3) cells. A range of concentrations of AGN 193109 and endo-IWR-1 were tested that could be used to reproduce macular, central and peripheral RPE populations (labeled P1, P2 and P3, respectively). Population 1 (P1, macular cells) can be reproduced with […] of AGN 193109. Population 3 (P3, peripheral) can be reproduced with 1 mM-4 mM of endo-IWR-1. A gradient of AGN 193109 and endo-IWR-1 could be used to replicate human RPE population 2 (P2, central)—central RPE cells. In one example, this can be reproduced with 25 nM-50 nM of AGN 193109 and 0.1 mM-0.5 mM of endo-IWR-1. Boxplots relative to DMSO, P1, P2 and P3 are plotted on the left side of the graph as a reference for cell size comparison. Five concentrations were tested for AGN 193109 and endo-IWR-1.
Screening of Compound Library and Imaging: 115 drugs targeting various developmental pathways or cytoskeletal stressors were selected to form a new developmental library of compounds. The drugs are either activators or inhibitors of various signaling pathways and target proteins at different levels of the signaling cascades. For each drug, an initial concentration was selected, and adjustments made to the concentration of each drug. The assays were performed on iPSC-derived committed RPE. For every drug, the concentration was lowered if toxicity was detected or increased if there was no evident effect on cell morphology in comparison to control. The list of compounds tested can be found in Table 1. The high-content screening was performed in 384-well plates (cat #6057300, Perkin Elmer) using a range of 3 different concentrations (3×, 1×, 0.3×). All drugs were reconstituted in dimethyl sulfoxide (DMSO, cat #D2650, Sigma) and 40 ul of each drug was aliquoted in triplicate in a 384-well master plate. Serial dilutions with RPEGM were then performed to obtain the final desired working concentrations and the final plates were stored at −80° C. […]

For data set [4], the system named is iPSC-RPE. In words: Acid phosphatase activity in lysates of treated RPE cells (p-nitrophenyl phosphate). The class given is cell-based, human. Particulars: compared with DMSO- or endo-IWR-1-treated cells. The protocol:
Acid phosphatase has higher expression in the macula (Boulton et al., The British Journal of Ophthalmology 78 (2), 125-9, doi: 10.1136/bjo.78.2.125 (1994)). This enzyme has an important role in photoreceptor outer segment digestion. The acid phosphatase activity was determined in cells treated with DMSO, AGN 193109 or endo-IWR-1. For these studies, RPE cells were lysed in distilled water to extract the enzyme. The lysates were then incubated with p-nitrophenyl phosphate, a phosphatase substrate that turns yellow when dephosphorylated by acid phosphatase. The color of the solution was measured with a spectrophotometer to estimate the enzyme activity.

Data set [5] has as its system iPSC-RPE. In words: Scanning electron microscopy of apical processes of treated iPSC-RPE. The class given is cell-based, human. Conditions: for type of apical processes enriched: SEM, DMSO control shows both petal and finger-like types. How it is done: FIG. 11. Defining petal (undulated) and finger-like apical processes. The transversal section of apical processes was measured to precisely define their shape. Petal-like apical processes, obtained by treating RPE cells with AGN 193109, have an average transversal length of 1.68 μm (length min 0.5, max 4 μm) and width of 0.20 μm (width min 0.1, max 1 μm). The petal-like apical processes are also wavy along their length. The width of the undulation ranges from 0.2 to 2 μm. Finger-like apical processes, obtained by treating RPE cells with endo-IWR-1, are cylindrical and have the same average transversal length and width of 0.23 μm (min 0.1, max 1 microns). An example of how measurements of the apical processes was done is shown for each type of apical processed.
as §1, §2

The next data set relates to iPSC-RPE cells. Briefly: Phagocytosis test with labelled bovine outer segments, flow cytometry. Type of data set: cell-based, human. Conditions: purified bovine outer segments, 4 hours, One-way ANOVA showed no difference. How it is done: iPSC-RPE cells were provided purified bovine outer segment (mostly rod photoreceptors) to phagocytose. The outer segments were labelled with a dye that fluoresces when the outer segments are phagocytosed. RPE cells were incubated for 4 hours with outer segments and then analyzed with flow cytometry to measure outer segment ingestion, or put back in the incubator for 20 hours before performing flow cytometry to measure outer segment digestion.
Background: In flow cytometry, cells or beads pass a laser one at a time.

Consider two compounds from patent publication US20240271089A1, “METHODS TO GENERATE MACULAR, CENTRAL AND PERIPHERAL RETINAL PIGMENT EPITHELIAL CELLS” (THE U.S.A., as represented by the Secretary, Department of …, priority 2021, published 2024).

SMILES strings stand for the structures. Entries after “also recorded” stand apart in the source; their conditions may differ.

Turning to `Cc1ccc(C2=CCC(C)(C)c3ccc(C#Cc4ccc(C(=O)O)cc4)cc32)cc1` [AGN 193109, 4-[2-[5,6-Dihydro-5,5-dimethyl-8-(4-methylphenyl)-2-naphthalenyl]ethynyl]-benzoic acid], in the data set on iPSC-RPE [1], the gross cell morphology entry is recorded as “no gross morphological alterations were detected; also recorded: nor did they affect gross or fine cell morphology”, the pigmentation levels result is given as “preserved; also recorded: did not alter pigmentation levels”, the fine intracellular structure result was “no fine intracellular structure defects were identified; also recorded: nor did they affect gross or fine cell morphology” and the “effect on iPSC-RPE health / healthy RPE phenotype” value was “not disruptive of iPSC-RPE health; also recorded: did not affect the healthy RPE phenotype”. Also, in the data set with iPSC-RPE [2], the “TER relative to cutoff / epithelial barrier integrity, in words” value is recorded as “well above the threshold; also recorded: well above this threshold” and the “trans-epithelial electrical resistance (TER)” value is given as ~1600 Ωcm^2. The “human RPE population whose cell size is reproduced by treated iPSC-RPE” value in the data set with iPSC-RPE [3] is listed as “comparable to the dimension of macular RPE population (P1)”. Moreover, the acid phosphatase activity result in the data set on iPSC-RPE [4] is recorded as “higher acid phosphatase activity”. For the same compound, the “type of apical processes enriched” value in the data set with iPSC-RPE [5] is reported as “enriched RPE cells with petal-like apical processes (with undulation)”. The “average transversal width of apical processes” value in the data set with iPSC-RPE [5] (transversal section, FIG. 11) was found to be 0.20 μm.
In the case of `O=C(Nc1cccc2cccnc12)c1ccc(N2C(=O)C3C4C=CC(C4)C3C2=O)cc1` (stereo not drawn) [endo-IWR-1, 4-(1,3,3a,4,7,7a-Hexahydro-1,3-dioxo-4,7-methano-2H-isoindol-2-yl)-N-8-quinolinyl-Benzamide], in the data set on iPSC-RPE [1], the gross cell morphology result is given as “nor did they affect gross or fine cell morphology”, the pigmentation levels result is “did not alter pigmentation levels” and the fine intracellular structure result was “nor did they affect gross or fine cell morphology”. Moreover, in the data set with iPSC-RPE [1] (listed as ENDO-1-IWR), the gross cell morphology result is on record as “no gross morphological alterations were detected”, the pigmentation levels result is recorded as “preserved”, the fine intracellular structure entry is listed as “no fine intracellular structure defects were identified” and the “effect on iPSC-RPE health / healthy RPE phenotype” value was “not disruptive of iPSC-RPE health; also recorded: did not affect the healthy RPE phenotype”. Further, in the data set on iPSC-RPE [1] (listed as Endo-IWR-1), the pigmentation levels result is listed as “did not alter pigmentation levels”. Also, in the data set on iPSC-RPE [2], the “TER relative to cutoff / epithelial barrier integrity, in words” value is given as “well above the threshold; also recorded: well above this threshold” and the “trans-epithelial electrical resistance (TER)” value was ~1200 Ωcm^2. Further, the “human RPE population whose cell size is reproduced by treated iPSC-RPE” value in the data set with iPSC-RPE [3] is “peripheral”. The “human RPE population whose cell size is reproduced by treated iPSC-RPE” value in the data set on iPSC-RPE [3] (listed as ENDO-1-IWR) is “comparable to cells of peripheral RPE population P3”. Besides, the outer segment ingestion entry in the data set on iPSC-RPE cells is on record as “ingest (peripheral cells) more outer segments”. The “type of apical processes enriched” value with iPSC-RPE [5] is given as “enriched cells with finger-like apical processes”. Moreover, the “type of apical processes enriched” value in the data set on iPSC-RPE [5] (listed as ENDO-1-IWR) is listed as “all RPE cells were enriched uniquely by finger-like apical processes”. For the same compound, in the data set on iPSC-RPE [5] (transversal section, FIG. 11), the “average transversal length of apical processes” value was determined as 0.23 μm and the “average transversal width of apical processes” value was found to be 0.23 μm.
